Measured values reported in patent US20260041679A1, “METHOD OF TREATING HYPERTENSION WITH THE ALDOSTERONE SYNTHASE INHIBITOR BAXDROSTAT” (CINCOR PHARMA, INC., priority 2022, published 2026).

System: patients with uHTN
Assay: Study 124 Part 2: 2 mg baxdrostat monotherapy for 4 weeks, SBP and safety
Format: in vivo, human
Conditions: Part 2
Method: Study 124 is a double-blind, placebo-controlled, dose range finding, multicenter study conducted in patients with uHTN receiving background antihypertensive agent(s) that are either an ACEI or an ARB, an ACEI/ARB plus a thiazide diuretic, or an ACEI/ARB plus a calcium channel blocker. The study consists of two parts: Part 1 consists of an 8-week treatment period in which the patients are to be assigned to one of 4 dose groups in equal ratio testing 0.5 mg, 1 mg, and 2 mg baxdrostat effects compared to a placebo. Patients are to administer double-blind baxdrostat tablets once per day while they continue taking the background antihypertensive medications. After 8 weeks of double-blind treatment, patients were to enter part 2 of the study unless the patient was assigned to the 2 mg group and the SBP remains ≥130 mmHg. In part 2 of the study, all patients are to cease dosing with background antihypertensive medication and take only baxdrostat 2 mg dose as a monotherapy for 4 weeks.
The secondary objectives are to evaluate the change from baseline in mean seated DBP with each of the selected dose strengths of baxdrostat compared to placebo after 8 weeks of treatment (Part 1), the change from baseline in 24-hour urine aldosterone and serum aldosterone levels with each of the selected dose strengths of baxdrostat compared to placebo after 8 weeks of treatment (Part 1), the percentage of patients achieving a mean seated SBP<130 mmHg (“responders”) with each of the selected dose strengths of baxdrostat compared to placebo after 8 weeks; and the change from baseline in 24-hour urine renin and serum renin levels with baxdrostat compared to placebo after 8 weeks of treatment. Patients who have completed the Part 2 study through Week 12 or who were considered withdrawn at the end of Part 1 may be eligible to enter a separate open label extension study (Study 130). Part 2 is an exploratory phase of the trial designed to evaluate the effect of 4 weeks of monotherapy with 2 mg baxdrostat in this hypertensive population, but the major goal of the Part 2 period is to transition patients to a long-term open label safety extension study of baxdrostat at the highest dose likely to be used in the hypertension population.
In Part 2, background antihypertensive therapy was discontinued following Part 1, and patients took two mg Baxdrostat for four additional weeks. […] There were two cases of moderate hyperkalemia with K+>/=6.0 mEq/L in the 213 patients in Part 2; both patients had stopped diuretic at the start of Part 2 and developed transient moderate hyperkalemia within 2 weeks.

CCC(=O)N[C@@H]1CCCc2c(-c3ccc4c(c3)CCC(=O)N4C)cncc21 [baxdrostat, (R)—N-(4-(1-methyl-2-oxo-1,2,3,4-tetrahydroquinolin-6-yl)-5,6,7,8-tetrahydroisoquinolin-8-yl) propionamide]
TEAEs Drug-Related, e - Number of events (2 mg, n = 60): 0 | TEAEs Drug-Related, n - Number of subjects (2 mg, n = 60): 0 | TEAEs Leading to death, % (2 mg, n = 60): 0.0% | TEAEs Leading to death, e - Number of events (2 mg, n = 60): 0 | TEAEs Leading to death, n - Number of subjects (2 mg, n = 60): 0 | TEAEs Leading to dosing discontinuation, % (2 mg, n = 60): 0% | TEAEs Leading to dosing discontinuation, e - Number of events (2 mg, n = 60): 0 | TEAEs Leading to dosing discontinuation, n - Number of subjects (2 mg, n = 60): 0 | TEAEs Leading to study discontinuation, % (2 mg, n = 60): 0.0% | TEAEs Leading to study discontinuation, e - Number of events (2 mg, n = 60): 0 | TEAEs Leading to study discontinuation, n - Number of subjects (2 mg, n = 60): 0 | TEAEs, % (2 mg, n = 60): 16.7% | TEAEs, e - Number of events (2 mg, n = 60): 9 | TEAEs, n - Number of subjects (2 mg, n = 60): 7 | AESI, % (Placebo to 2 mg, n = 64): 1.7% | AESI, e - Number of events (Placebo to 2 mg, n = 64): 2 | AESI, n - Number of subjects (Placebo to 2 mg, n = 64): 1 | SAEs, % (Placebo to 2 mg, n = 64): 3.3% | SAEs, e - Number of events (Placebo to 2 mg, n = 64): 2 | SAEs, n - Number of subjects (Placebo to 2 mg, n = 64): 2 | TEAEs Drug-Related, % (Placebo to 2 mg, n = 64): 5.0% | TEAEs Drug-Related, e - Number of events (Placebo to 2 mg, n = 64): 5 | TEAEs Drug-Related, n - Number of subjects (Placebo to 2 mg, n = 64): 3 | TEAEs Leading to death, % (Placebo to 2 mg, n = 64): 0.0% | TEAEs Leading to death, e - Number of events (Placebo to 2 mg, n = 64): 0 | TEAEs Leading to death, n - Number of subjects (Placebo to 2 mg, n = 64): 0 | TEAEs Leading to dosing discontinuation, % (Placebo to 2 mg, n = 64): 0% | TEAEs Leading to dosing discontinuation, e - Number of events (Placebo to 2 mg, n = 64): 0 | TEAEs Leading to dosing discontinuation, n - Number of subjects (Placebo to 2 mg, n = 64): 0 | TEAEs Leading to study discontinuation, % (Placebo to 2 mg, n = 64): 0.0% | TEAEs Leading to study discontinuation, e - Number of events (Placebo to 2 mg, n = 64): 0 | TEAEs Leading to study discontinuation, n - Number of subjects (Placebo to 2 mg, n = 64): 0 | TEAEs, % (Placebo to 2 mg, n = 64): 21.7% | TEAEs, e - Number of events (Placebo to 2 mg, n = 64): 24 | TEAEs, n - Number of subjects (Placebo to 2 mg, n = 64): 13 | AESI, % (Total, n = 249): 1.4% | AESI, e - Number of events (Total, n = 249): 4 | AESI, n - Number of subjects (Total, n = 249): 3 | SAEs, % (Total, n = 249): 1.4% | SAEs, e - Number of events (Total, n = 249): 4 | SAEs, n - Number of subjects (Total, n = 249): 3 | TEAEs Drug-Related, % (Total, n = 249): 5.2% | TEAEs Drug-Related, e - Number of events (Total, n = 249): 15 | TEAEs Drug-Related, n - Number of subjects (Total, n = 249): 11 | TEAEs Leading to death, % (Total, n = 249): 0.0% | TEAEs Leading to death, e - Number of events (Total, n = 249): 0 | TEAEs Leading to death, n - Number of subjects (Total, n = 249): 0 | TEAEs Leading to dosing discontinuation, % (Total, n = 249): 0.9% | TEAEs Leading to dosing discontinuation, e - Number of events (Total, n = 249): 3 | TEAEs Leading to dosing discontinuation, n - Number of subjects (Total, n = 249): 2 | TEAEs Leading to study discontinuation, % (Total, n = 249): 0.0% | TEAEs Leading to study discontinuation, e - Number of events (Total, n = 249): 0 | TEAEs Leading to study discontinuation, n - Number of subjects (Total, n = 249): 0 | TEAEs, % (Total, n = 249): 19.2% | TEAEs, e - Number of events (Total, n = 249): 74 | TEAEs, n - Number of subjects (Total, n = 249): 41
